Assay results as given in patent US20110130380A1, “Heteroaryl Kinase Inhibitors” (priority 2009, published 2011).

Biological target: Cdk9/cyclinT1 (Homo sapiens, UniProt P50750)
Assay: Cdk9/cyclinT1 IMAP Protocol (fluorescence polarization kinase assay)
Conditions: ATP 6 uM
[1] = Cdk9_cyclinT1_IC50, Table V, generated using one of the two Cdk9/cyclinT1 assays (IMAP or Alpha Screen), not stated which

Sequence of Cdk9/cyclinT1 (P50750 whole entry): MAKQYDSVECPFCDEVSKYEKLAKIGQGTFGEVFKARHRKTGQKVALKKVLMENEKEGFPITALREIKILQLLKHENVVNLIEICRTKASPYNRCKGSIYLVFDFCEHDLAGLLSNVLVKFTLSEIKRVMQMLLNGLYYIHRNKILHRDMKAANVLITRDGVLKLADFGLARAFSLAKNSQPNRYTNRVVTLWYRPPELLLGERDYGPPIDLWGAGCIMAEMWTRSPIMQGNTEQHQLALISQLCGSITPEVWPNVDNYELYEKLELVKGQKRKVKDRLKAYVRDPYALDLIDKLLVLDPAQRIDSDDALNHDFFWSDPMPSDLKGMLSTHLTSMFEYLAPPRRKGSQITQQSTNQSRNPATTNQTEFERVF
Sequence of Cdk9/cyclinT1 (O60563 whole entry partner): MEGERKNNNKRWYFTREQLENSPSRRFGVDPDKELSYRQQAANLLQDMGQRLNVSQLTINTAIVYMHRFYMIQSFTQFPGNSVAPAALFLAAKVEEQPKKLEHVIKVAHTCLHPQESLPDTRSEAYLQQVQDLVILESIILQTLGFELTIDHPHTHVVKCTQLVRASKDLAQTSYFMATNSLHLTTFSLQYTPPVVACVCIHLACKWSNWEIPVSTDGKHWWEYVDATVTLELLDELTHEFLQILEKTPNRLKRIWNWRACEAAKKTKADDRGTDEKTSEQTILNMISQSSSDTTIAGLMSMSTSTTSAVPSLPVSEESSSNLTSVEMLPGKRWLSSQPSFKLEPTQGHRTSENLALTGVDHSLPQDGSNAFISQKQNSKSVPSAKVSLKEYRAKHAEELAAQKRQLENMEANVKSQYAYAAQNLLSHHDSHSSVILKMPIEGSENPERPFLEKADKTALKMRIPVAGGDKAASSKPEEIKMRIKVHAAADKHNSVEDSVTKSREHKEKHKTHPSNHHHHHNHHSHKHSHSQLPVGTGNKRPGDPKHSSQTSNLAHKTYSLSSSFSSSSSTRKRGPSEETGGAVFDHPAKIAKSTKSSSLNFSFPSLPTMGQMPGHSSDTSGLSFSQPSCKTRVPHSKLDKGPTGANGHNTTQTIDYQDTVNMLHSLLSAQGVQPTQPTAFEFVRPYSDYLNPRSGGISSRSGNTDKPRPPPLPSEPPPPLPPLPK

SMILES | IC50 [1] | IC50 (Cdk9_cyclinT1_IC50, generated using one of the two Cdk9/cyclinT1 assays (IMAP or Alpha Screen), not specified per value)
O=C1CCC(C(=O)Nc2cc(-c3cccc(NCC4CCOCC4)n3)c(Cl)cn2)CN1 (stereo not shown) [Example 61, 6-Oxo-piperidine-3-carboxylic acid {5′-chloro-6-[(tetrahydro-pyran-4-ylmethyl)-amino]-[2,4′]bipyridinyl-2′-yl}-amide] | < 8 nM | –
O=C(Nc1cc(-c2cccc(NCC3CCOCC3)n2)c(Cl)cn1)[C@@H]1CCCN(CCF)C1 [Example 10, (R)-1-(2-Fluoro-ethyl)-piperidine-3-carboxylic acid {5′-chloro-6-[(tetrahydro-pyran-4-ylmethyl)-amino]-[2,4′]bipyridinyl-2′-yl}-amide] | 164 nM | –
CC(C)(C)OC(=O)N1CCC[C@H](C(=O)Nc2cc(-c3cccc(NCc4cccc(F)c4)n3)c(Cl)cn2)C1 [Example 5, (S)-3-[5′-Chloro-6-(3-fluoro-benzylamino)-[2,4′]bipyridinyl-2′-ylcarbamoyl]-piperidine-1-carboxylic acid tert-butyl ester] | 62 nM | –
CN1CC(C(=O)Nc2cc(-c3cccc(NCC4CCOCC4)n3)c(Cl)cn2)CC1=O (stereo not shown) [Example 60, 1-Methyl-5-oxo-pyrrolidine-3-carboxylic acid {5′-chloro-6-[(tetrahydro-pyran-4-ylmethyl)-amino]-[2,4′]bipyridinyl-2′-yl}-amide] | 9 nM | –
O=C(Nc1cc(-c2cccc(NCC3CC3)n2)c(Cl)cn1)[C@@H]1CCCNC1 [Example 20, (R)-Piperidine-3-carboxylic acid [5′-chloro-6-(cyclopropylmethyl-amino)-[2,4′]bipyridinyl-2′-yl]-amide] | 44 nM | –
O=C(Nc1cc(-c2cccc(NCC3CCOCC3)n2)c(Cl)cn1)[C@@H]1CCCN(CC(F)(F)F)C1 [Example 11, (R)-1-(2,2,2-Trifluoro-ethyl)-piperidine-3-carboxylic acid {5′-chloro-6-[(tetrahydro-pyran-4-ylmethyl)-amino]-[2,4′]bipyridinyl-2′-yl}-amide] | 770 nM | –
O=C(Nc1cc(-c2cccc(NCC3CCOCC3)n2)c(Cl)cn1)[C@@H]1CCNC1 [Example 50, (R)-Pyrrolidine-3-carboxylic acid {5′-chloro-6-[(tetrahydro-pyran-4-ylmethyl)-amino]-[2,4′]bipyridinyl-2′-yl}-amide] | < 8 nM | –
O=C(Nc1cc(-c2nc(NCC3CCOCC3)c(Cl)cc2Cl)c(Cl)cn1)[C@@H]1CCCNC1 [Example 134, (R)-Piperidine-3-carboxylic acid {3,5,5′-trichloro-6-[(tetrahydro-pyran-4-ylmethyl)-amino]-[2,4′]bipyridinyl-2′-yl}-amide] | < 8 nM | –
O=C(Nc1cc(-c2cccc(NCC3CCOCC3)n2)c(Cl)cn1)[C@H]1CNC[C@H]1F [Example 85, (3R,4S)-4-Fluoro-pyrrolidine-3-carboxylic acid {5′-chloro-6-[(tetrahydro-pyran-4-ylmethyl)-amino]-[2,4′]bipyridinyl-2′-yl}-amide] | 16 nM | –
O=C(Nc1cc(-c2cccc(N3CCCC3)n2)c(Cl)cn1)[C@@H]1CCCNC1 [Example 44, (R)-Piperidine-3-carboxylic acid (5′-chloro-6-pyrrolidin-1-yl-[2,4′]bipyridinyl-2′-yl)-amide] | 181 nM | –
O=C(Nc1cc(-c2cccc(NCC3CCS(=O)(=O)CC3)n2)c(Cl)cn1)[C@@H]1CCCNC1 [Example 12, (R)-piperidine-3-carboxylic acid {5′-chloro-6-[(1′,1′-dioxo-hexahydro-1-thiopyran-4-ylmethyl)-amino]-[2,4′]bipyridinyl-2′-yl}-amide] | < 8 nM | –
O=C(Nc1cc(-c2cccc(N3CCC(O)CC3)n2)c(Cl)cn1)[C@@H]1CCCNC1 [Example 43, (R)-Piperidine-3-carboxylic acid (5″- chloro-4-hydroxy-3,4,5,6-tetrahydro-2H-[1,2′;6′,4″]terpyridin-2″- yl)-amide] | 57 nM | –
O=C(Nc1cc(-c2cccc(NCC3CCOCC3)n2)c(Cl)cn1)[C@H]1CCCO1 [Example 68, (R)-Tetrahydro-furan-2-carboxylic acid {5′-chloro-6-[(tetrahydro-pyran-4-ylmethyl)-amino]-[2,4′]bipyridinyl-2′-yl}-amide] | 11 nM | –
O=C(Nc1cc(-c2cccc(NCC3CCOCC3)n2)c(Cl)cn1)[C@H]1CCNC1 [Example 73, (S)-Pyrrolidine-3-carboxylic acid {5′-chloro-6-[(tetrahydro-pyran-4-ylmethyl)-amino]-[2,4′]bipyridinyl-2′-yl}-amide] | 13 nM | –

Other lines, results leading:

IC50 [1] | IC50 (Cdk9_cyclinT1_IC50, generated using one of the two Cdk9/cyclinT1 assays (IMAP or Alpha Screen), not specified per value) | SMILES
9 nM | – | CC[C@H]1CC[C@H](C(=O)Nc2cc(-c3cccc(NCC4CCOCC4)n3)c(Cl)cn2)CN1 (single isomer, unassigned) [Example 241]
6 nM | – | C[C@H]1CC[C@H](C(=O)Nc2cc(-c3cccc(NC[C@H]4CCOC(C)(C)C4)n3)c(Cl)cn2)CN1 (single isomer, unassigned) [Example 245]
3 nM | – | O=C(Nc1cc(-c2cccc(NCC3CCOCC3)n2)c(Cl)cn1)C1CNCCOC1 (stereo not shown) [Example 187, [1,4]Oxazepane-6-carboxylic acid {5′-chloro-6-[(tetrahydro-pyran-4-ylmethyl)-amino]-[2,4′]bipyridinyl-2′-yl}-amide]
1 nM | – | C[C@@H]1CC[C@@H](C(=O)Nc2cc(-c3cccc(NC[C@H]4CCOC(C)(C)C4)n3)c(Cl)cn2)CN1 (mixture of isomers) [Example 227, (3R,6R)-/(3S,6S)-6-Methyl-piperidine-3-carboxylic acid {5′-chloro-6-[((S)-2,2-dimethyl-tetrahydro-pyran-4-ylmethyl)-amino]-[2,4′]bipyridinyl-2′-yl}-amide]
2 nM | – | COC(=O)N1CCC[C@H](C(=O)Nc2cc(-c3nc(NC[C@H]4CCOC(C)(C)C4)ccc3Cl)c(Cl)cn2)C1 (single isomer, unassigned) [Example 175]
1 nM | – | O=C(Nc1cc(-c2ccc(F)c(NCC3CCOCC3)n2)c(Cl)cn1)C1CNCCOC1 (stereo not shown) [Example 201, [1,4]Oxazepane-6-carboxylic acid {5′-chloro-5-fluoro-6-[(tetrahydro-pyran-4-ylmethyl)-amino]-[2,4′]bipyridinyl-2′-yl}-amide]
1 nM | – | CC1(C)COC[C@@H](CNc2cccc(-c3cc(NC(=O)[C@@H]4CCCNC4)ncc3Cl)n2)O1 (single isomer, unassigned) [Example 233]
151 nM | – | C[C@@H]1CC[C@H](C(=O)Nc2cc(-c3cccc(NCC4CCOCC4)n3)c(Cl)cn2)CN1 (single isomer, unassigned) [Example 142]
11 nM | – | C[C@@H](Nc1cccc(-c2cc(NC(=O)[C@@H]3CCCNC3)ncc2Cl)n1)C1CCOCC1 [Example 137, (R)-Piperidine-3-carboxylic acid {5′-chloro-6-[(R)-1-(tetrahydro-pyran-4-yl)-ethylamino]-[2,4′]bipyridinyl-2′-yl}-amide]
1 nM | – | CC(C)S(=O)(=O)N1CCC[C@H](C(=O)Nc2cc(-c3nc(NC[C@@H]4CCOC(C)(C)C4)ccc3Cl)c(Cl)cn2)C1 (single isomer, unassigned) [Example 172]
– | < 8 nM | O=C(Nc1cc(-c2cncc(NCC3CCOCC3)c2)c(Cl)cn1)[C@@H]1CCCNC1 [Example 301, (R)-Piperidine-3-carboxylic acid {5′-chloro-5-[(tetrahydro-pyran-4-ylmethyl)-amino]-[3,4′]bipyridinyl-2′-yl}-amide]
